This is an account of results in publication PMC6720199, “Antioxidant, Anti-Inflammatory, and Multidrug Resistance Modulation Activity of Silychristin Derivatives” (Antioxidants, 2019).

T1 sequence (P08183 whole entry): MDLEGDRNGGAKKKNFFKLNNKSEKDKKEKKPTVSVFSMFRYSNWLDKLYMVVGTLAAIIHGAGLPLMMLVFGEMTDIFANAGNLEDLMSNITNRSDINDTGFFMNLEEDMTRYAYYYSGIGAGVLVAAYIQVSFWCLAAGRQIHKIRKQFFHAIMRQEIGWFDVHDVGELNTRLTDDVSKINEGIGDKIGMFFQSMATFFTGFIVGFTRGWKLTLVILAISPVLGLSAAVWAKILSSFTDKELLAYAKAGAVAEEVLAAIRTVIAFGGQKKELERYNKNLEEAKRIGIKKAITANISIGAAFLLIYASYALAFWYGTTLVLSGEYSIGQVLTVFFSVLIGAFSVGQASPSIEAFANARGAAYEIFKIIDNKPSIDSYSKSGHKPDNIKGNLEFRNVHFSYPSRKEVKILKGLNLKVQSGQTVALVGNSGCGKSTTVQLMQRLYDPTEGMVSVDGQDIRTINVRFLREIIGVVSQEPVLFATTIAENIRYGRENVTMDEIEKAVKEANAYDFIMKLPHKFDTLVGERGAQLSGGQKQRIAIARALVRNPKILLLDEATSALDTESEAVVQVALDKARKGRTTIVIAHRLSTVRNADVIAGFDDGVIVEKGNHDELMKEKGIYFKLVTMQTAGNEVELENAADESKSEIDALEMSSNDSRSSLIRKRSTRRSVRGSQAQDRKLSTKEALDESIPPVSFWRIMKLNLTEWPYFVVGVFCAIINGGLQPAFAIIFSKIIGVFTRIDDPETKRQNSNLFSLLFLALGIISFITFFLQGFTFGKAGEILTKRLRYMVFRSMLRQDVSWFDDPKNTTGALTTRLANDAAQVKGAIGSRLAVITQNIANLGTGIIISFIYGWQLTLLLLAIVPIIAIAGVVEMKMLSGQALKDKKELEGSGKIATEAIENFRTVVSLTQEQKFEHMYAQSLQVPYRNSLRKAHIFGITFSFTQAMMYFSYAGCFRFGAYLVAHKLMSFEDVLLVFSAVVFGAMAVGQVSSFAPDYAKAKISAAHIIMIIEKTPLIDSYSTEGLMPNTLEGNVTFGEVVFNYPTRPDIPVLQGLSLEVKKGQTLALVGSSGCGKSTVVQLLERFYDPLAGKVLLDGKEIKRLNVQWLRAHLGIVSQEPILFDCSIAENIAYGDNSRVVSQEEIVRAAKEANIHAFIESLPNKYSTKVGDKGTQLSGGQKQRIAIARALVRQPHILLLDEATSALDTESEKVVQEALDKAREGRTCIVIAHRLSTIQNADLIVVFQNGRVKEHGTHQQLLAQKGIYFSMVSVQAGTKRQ

This assay addresses T1, P-glycoprotein (P-gp, ABCB1) (Homo sapiens, UniProt P08183).
T1 construct: P-gp containing membranes of the commercial Pgp-Glo Assay System (Promega; kit membranes carry recombinant human P-gp); full length, not purified
Description: Pgp-Glo luminescent ATPase assay, P-gp membranes. Type of assay: biochemical. The text has this:
Pgp-Glo luminescent ATPase assay, P-gp membranes on P-glycoprotein (P-gp, ABCB1)
By IC50 is commonly meant the midpoint of a concentration-inhibition curve. The low end stands for greater potency in that assay, the high end for weaker potency in that assay. Compound `COc1cc(-c2oc3c(O)cc([C@H]4Oc5cc(O)cc(O)c5C(=O)[C@@H]4O)cc3c2C)ccc1O` [Anhydrosilychristin] returned an IC50 of 16.8 ± 0.2 µM.

For `COc1cc([C@@H]2Oc3c(O)cc([C@H]4Oc5cc(O)cc(O)c5C(=O)[C@@H]4O)cc3[C@H]2CO)ccc1O` [Silychristin A], inhibition was half-maximal at 21 ± 1 µM (IC50).

`COc1cc([C@@H]2Oc3c(O)cc(-c4oc5cc(O)cc(O)c5c(=O)c4O)cc3[C@H]2CO)ccc1O` [2,3-Dehydrosilychristin A] displayed an IC50 of 15.6 ± 0.5 µM.
